# Laboratory results as given in patent US4670255A, “Hair tonic composition” (priority 1983, dated 1987).
# Tested on: testosterone 5α-reductase
# Assay: Determination of 5α-reductase inhibitory activity (labelled testosterone conversion)
# Assay type: biochemical, rats
# Experimental: Prostate gland cells of rats were crushed and a specimen of testosterone 5α-reductase was then prepared by separating microsome from the crushed liquid mixture. The conversion of testosterone to 5α-dihydrotestosterone by the use of the above-prepared enzyme specimen was monitored by radioisotopically labelled testosterone. The reaction mixture was extracted with ethyl acetate and the extract was developed twice by silica gel thin layer chromatography (solvent system, dichloromethane:cyclohexane:acetone=15:4:1). The amount of 5α-dihydrotestosterone were determined from the intensities of the radioactivity.
# A 30 μl amount of a 0.05M phosphate buffer (pH=6.6) containing 0.1% of BSA (bovine serum albumin), 10 μl of an enzyme specimen, 8.5 pmol of labelled testosterone, 50 nmol of a reduced form of NADP (nicotinamide adenine dinucleotide phosphate), and 10 μl of a test sample were mixed (total amount=50 μl). The mixture was allowed to react at a temperature of 25° C. for 60 minutes.
# After the completion of the reaction, the reaction mixture was extracted with ethyl acetate by adding 50 μl of ethyl acetate to the reaction mixture. The extract was developed in the same manner as mentioned above and the intensity of the radioisotope was measured by using a scintillation counter.
# The above-mentioned determination was applied to the samples having various concentrations. The 5α-reductase inhibitory activity was obtained as a inhibitory rate (%) or a 50% inhibitory concentration.
row,Compound,5α-reductase inhibitory activity (in words)
1,CCCCC/C=C\C/C=C\CCCCCCCC(=O)O [linolic acid],especially strong
2,CCCCCCCC/C=C\CCCCCCCC(=O)O [oleic acid],especially strong
3,CCCCCCCCCCCCCCCC(=O)O [palmitic acid],especially strong
4,CCCCCC/C=C\CCCCCCCC(=O)O [palmitoleic acid],especially strong
